Source: patent US20100222269A1, “IMPROVED DERIVATIVES OF AMYLIN” (priority 2007, published 2010)
Like-named read-outs stand apart in the source and are kept apart here. Positions of bridges follow the written chain, without caps; N, C: chain ends. Residues, ends and D or L forms follow the SMILES beside them. Groups on a side chain read outwards from the residue. *: point of attachment. C20 diacid = O=C(O)CCCCCCCCCCCCCCCCCCC(=O)*; C18 diacid = O=C(O)CCCCCCCCCCCCCCCCC(=O)*; AEEA = NCCOCCOCC(=O)O

Biological target: T1, Amylin 3(a) receptor (human calcitonin receptor (CTa) with RAMP-3) (Homo sapiens, UniProt O60896+P30988)
T1 construct: expressed in transfected cells; host or cells: BHK570 (baby hamster kidney) cells, stably transfected, with CRE-luciferase reporter
Assay: Amylin luciferase assay (CRE-luciferase reporter in BHK Amylin 3(a)//CRE-luc cells)
Type: cell-based
Text: It has previously been published (Poyner D R et al 2002, Pharmacological Reviews 54(2) 233-246) that activation of Amylin receptors (coexpression of Calcitonin receptor and receptor activity modifying peptides RAMPs) by Amylin leads to an increase in the intracellular concentration of cAMP. Consequently, transcription is activated at promotors containing multiple copies of the cAMP response element (CRE). It is thus possible to measure Amylin activity by use of a CRE luciferase reporter gene introduced into BHK cells also expressing an Amylin receptor.
2. Construction of an Amylin 3(a)/CRE-luc Cell Line
A BHK570 cell line stably transfected with the human calcitonin receptor (CTa) and a CRE-responsive luciferase reportergene. The cell line was further transfected with RAMP-3, using standard methods. This turns the Calcitonin receptor into an Amylin 3(a) receptor. Methotrexate, Neomycin, and Hygromycin are selection markers for luciferase, the Calcitonin receptor, and RAMP-3, respectively.
3. Amylin Luciferase Assay
To perform activity assays, BHK Amylin 3(a)//CRE-luc cells were seeded in white 96 well culture plates at a density of about 20.000 cells/well. The cells were in 100 μl growth medium (DMEM with 10% FBS, 1% Pen/Strep, 1 mM Na-pyruvate, 250 nM Methotrexate, 500 μg/ml Neomycin, and 400 μg/ml Hygromycin). After incubation overnight at 37° C. and 5% CO2, the growth medium was replaced by 50 μl/well assay medium (DMEM (without phenol red), Glumamax™, 10% FBS, and 10 mM Hepes, pH 7,4). Further, 50 μl/well of standard or sample in assay buffer were added. After 4 hours incubation at 37° C. and 5% CO2, the assay medium with standard or sample were removed and replaced by 100 μl/well PBS. Further, 100 μl/well LucLite™ was added. The plates were sealed and incubated at room temperature for 30 minutes. Finally, luminescence was measured on a TopCounter (Packard) in SPC (single photon counting) mode.

[1] = BHK570 cells with human calcitonin receptor (CTa), RAMP-3 and CRE-luciferase reporter, 4 hours incubation, read-out: Potency luciferase assay

T1 sequence (O60896 24-148): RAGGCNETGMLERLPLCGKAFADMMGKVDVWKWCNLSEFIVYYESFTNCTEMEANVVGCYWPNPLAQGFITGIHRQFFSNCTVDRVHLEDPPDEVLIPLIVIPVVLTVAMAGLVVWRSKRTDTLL
T1 sequence (P30988 25-474): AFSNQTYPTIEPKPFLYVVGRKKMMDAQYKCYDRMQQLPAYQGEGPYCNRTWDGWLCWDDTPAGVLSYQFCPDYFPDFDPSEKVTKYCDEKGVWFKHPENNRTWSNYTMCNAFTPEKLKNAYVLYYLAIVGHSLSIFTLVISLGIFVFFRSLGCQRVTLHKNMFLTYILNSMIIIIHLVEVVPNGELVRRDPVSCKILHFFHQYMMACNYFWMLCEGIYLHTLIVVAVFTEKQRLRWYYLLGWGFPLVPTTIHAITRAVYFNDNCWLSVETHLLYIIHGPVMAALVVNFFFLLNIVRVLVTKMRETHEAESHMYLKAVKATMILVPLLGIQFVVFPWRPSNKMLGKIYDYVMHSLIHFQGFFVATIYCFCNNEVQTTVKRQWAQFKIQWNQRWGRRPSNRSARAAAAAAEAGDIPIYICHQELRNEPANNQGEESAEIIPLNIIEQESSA

Row | EC50 [1] [nM] | SMILES | EC50 [nM]
1 | 0.2 | CC[C@H](C)[C@H](NC(=O)[C@@H]1CCCN1C(=O)CNC(=O)[C@H](Cc1ccccc1)NC(=O)[C@H](CC(N)=O)NC(=O)[C@H](CC(N)=O)NC(=O)[C@H](CO)NC(=O)[C@H](CO)NC(=O)[C@H](Cc1c[nH]cn1)NC(=O)[C@@H](NC(=O)[C@H](CC(C)C)NC(=O)[C@H](Cc1ccccc1)NC(=O)[C@H](CC(N)=O)NC(=O)[C@H](C)NC(=O)[C@H](CC(C)C)NC(=O)[C@H](CCCNC(=N)N)NC(=O)[C@H](CCC(N)=O)NC(=O)[C@@H](NC(=O)[C@H](C)NC(=O)[C@@H]1CSSC[C@H](NC(=O)[C@@H](N)CCCCN)C(=O)N[C@@H](CC(N)=O)C(=O)N[C@@H]([C@@H](C)O)C(=O)N[C@@H](C)C(=O)N[C@@H]([C@@H](C)O)C(=O)N1)[C@@H](C)O)C(C)C)C(=O)N[C@@H](CC(C)C)C(=O)N1CCC[C@H]1C(=O)N[C@@H](CCCCNC(=O)COCCOCCNC(=O)COCCOCCNC(=O)CCCCCCCCCCCCCCCCCCC(=O)O)C(=O)N[C@H](C(=O)N[C@@H](CC(N)=O)C(=O)N[C@H](C(=O)NCC(=O)N[C@@H](CO)C(=O)N[C@@H](CC(N)=O)C(=O)N[C@H](C(=O)N[C@@H](Cc1ccc(O)cc1)C(N)=O)[C@@H](C)O)C(C)C)[C@@H](C)O [Example 6, N-epsilon29-(2-{2-[2-(2-{2-[2-(19-carboxynonadecanoylamino)ethoxy]ethoxy}acetylamino)ethoxy]ethoxy}acetyl)-[Lys29]-pramlintide (1-37)] (H-KCNTATCATQRLANFLVHSSNNFGPILPK([AEEA-AEEA-C20 diacid])TNVGSNTY-NH2; disulfide 2-7; N-terminus and C-terminus assumed) | –
2 | 0.1 | CC[C@H](C)[C@H](NC(=O)[C@@H]1CCCN1C(=O)CNC(=O)[C@H](Cc1ccccc1)NC(=O)[C@H](CC(N)=O)NC(=O)[C@H](CCCCNC(=O)COCCOCCNC(=O)COCCOCCNC(=O)CCCCCCCCCCCCCCCCCCC(=O)O)NC(=O)[C@H](CO)NC(=O)[C@H](CO)NC(=O)[C@H](Cc1c[nH]cn1)NC(=O)[C@@H](NC(=O)[C@H](CC(C)C)NC(=O)[C@H](Cc1ccccc1)NC(=O)[C@H](CC(N)=O)NC(=O)[C@H](C)NC(=O)[C@H](CC(C)C)NC(=O)[C@H](CCCNC(=N)N)NC(=O)[C@H](CCC(N)=O)NC(=O)[C@@H](NC(=O)[C@H](C)NC(=O)[C@@H]1CSSC[C@H](NC(=O)[C@@H](N)CCCCN)C(=O)N[C@@H](CC(N)=O)C(=O)N[C@@H]([C@@H](C)O)C(=O)N[C@@H](C)C(=O)N[C@@H]([C@@H](C)O)C(=O)N1)[C@@H](C)O)C(C)C)C(=O)N[C@@H](CC(C)C)C(=O)N1CCC[C@H]1C(=O)N1CCC[C@H]1C(=O)N[C@H](C(=O)N[C@@H](CC(N)=O)C(=O)N[C@H](C(=O)NCC(=O)N[C@@H](CO)C(=O)N[C@@H](CC(N)=O)C(=O)N[C@H](C(=O)N[C@@H](Cc1ccc(O)cc1)C(N)=O)[C@@H](C)O)C(C)C)[C@@H](C)O [Example 7, N-epsilon2′-(2-{2-[2-(2-{2-[2-(19-carboxynonadecanoylamino)ethoxy]ethoxy}acetylamino)ethoxy]ethoxy}acetyl)-[Lys21]-pramlintide (1-37)] (H-KCNTATCATQRLANFLVHSSK([AEEA-AEEA-C20 diacid])NFGPILPPTNVGSNTY-NH2; disulfide 2-7; N-terminus and C-terminus assumed) | –
3 | – | CC[C@H](C)[C@H](NC(=O)[C@@H]1CCCN1C(=O)CNC(=O)[C@H](Cc1ccccc1)NC(=O)[C@H](CC(N)=O)NC(=O)[C@H](CC(N)=O)NC(=O)[C@H](CO)NC(=O)[C@H](CO)NC(=O)[C@H](Cc1c[nH]cn1)NC(=O)[C@H](CCCCNC(=O)COCCOCCNC(=O)COCCOCCNC(=O)CCCCCCCCCCCCCCCCCCC(=O)O)NC(=O)[C@H](CC(C)C)NC(=O)[C@H](Cc1ccccc1)NC(=O)[C@H](CC(N)=O)NC(=O)[C@H](C)NC(=O)[C@H](CC(C)C)NC(=O)[C@H](CCCNC(=N)N)NC(=O)[C@H](CCC(N)=O)NC(=O)[C@@H](NC(=O)[C@H](C)NC(=O)[C@@H]1CSSC[C@H](NC(=O)[C@@H](N)CCCCN)C(=O)N[C@@H](CC(N)=O)C(=O)N[C@@H]([C@@H](C)O)C(=O)N[C@@H](C)C(=O)N[C@@H]([C@@H](C)O)C(=O)N1)[C@@H](C)O)C(=O)N[C@@H](CC(C)C)C(=O)N1CCC[C@H]1C(=O)N1CCC[C@H]1C(=O)N[C@H](C(=O)N[C@@H](CC(N)=O)C(=O)N[C@H](C(=O)NCC(=O)N[C@@H](CO)C(=O)N[C@@H](CC(N)=O)C(=O)N[C@H](C(=O)N[C@@H](Cc1ccc(O)cc1)C(N)=O)[C@@H](C)O)C(C)C)[C@@H](C)O [Example 8, N-epsilon17-(2-{2-[2-(2-{2-[2-(19-carboxynonadecanoylamino)ethoxy]ethoxy}acetylamino)ethoxy]ethoxy}acetyl)-[Lys17]-pramlintide (1-37)] (H-KCNTATCATQRLANFLK([AEEA-AEEA-C20 diacid])HSSNNFGPILPPTNVGSNTY-NH2; disulfide 2-7; N-terminus assumed) | 0.1
4 | 0.04 | CC[C@H](C)[C@H](NC(=O)[C@H](CCCCNC(=O)COCCOCCNC(=O)COCCOCCNC(=O)CCCCCCCCCCCCCCCCC(=O)O)NC(=O)CNC(=O)[C@H](Cc1ccccc1)NC(=O)[C@H](CC(N)=O)NC(=O)[C@H](CC(N)=O)NC(=O)[C@H](CO)NC(=O)[C@H](CO)NC(=O)[C@H](CCCNC(=N)N)NC(=O)[C@@H](NC(=O)[C@H](CC(C)C)NC(=O)[C@H](Cc1ccccc1)NC(=O)[C@H](CC(N)=O)NC(=O)[C@H](C)NC(=O)[C@H](CC(C)C)NC(=O)[C@H](CCCNC(=N)N)NC(=O)[C@H](CCC(N)=O)NC(=O)[C@@H](NC(=O)[C@H](C)NC(=O)[C@@H]1CSSC[C@H](NC(=O)[C@@H](N)CCCCN)C(=O)N[C@@H](CC(N)=O)C(=O)N[C@@H]([C@@H](C)O)C(=O)N[C@@H](C)C(=O)N[C@@H]([C@@H](C)O)C(=O)N1)[C@@H](C)O)C(C)C)C(=O)N[C@@H](CC(C)C)C(=O)N1CCC[C@H]1C(=O)N1CCC[C@H]1C(=O)N[C@H](C(=O)N[C@@H](CC(N)=O)C(=O)N[C@H](C(=O)NCC(=O)N[C@@H](CO)C(=O)N[C@@H](CC(N)=O)C(=O)N[C@H](C(=O)N[C@@H](Cc1ccc(O)cc1)C(N)=O)[C@@H](C)O)C(C)C)[C@@H](C)O [Example 9, N-epsilon25-(2-{2-[2-(2-{2-[2-(17-carboxyheptadecanoylamino)ethoxy]ethoxy}acetylamino)ethoxy]ethoxy}acetyl)-[Arg18,Lys25]-pramlintide (1-37)] (H-KCNTATCATQRLANFLVRSSNNFGK([AEEA-AEEA-C18 diacid])ILPPTNVGSNTY-NH2; disulfide 2-7) | –
5 | 0.06 | CC[C@H](C)[C@H](NC(=O)[C@H](CCCCNC(=O)COCCOCCNC(=O)COCCOCCNC(=O)CCCCCCCCCCCCCCCCCCC(=O)O)NC(=O)CNC(=O)[C@H](Cc1ccccc1)NC(=O)[C@H](CC(N)=O)NC(=O)[C@H](CC(N)=O)NC(=O)[C@H](CO)NC(=O)[C@H](CO)NC(=O)[C@H](Cc1c[nH]cn1)NC(=O)[C@@H](NC(=O)[C@H](CC(C)C)NC(=O)[C@H](Cc1ccccc1)NC(=O)[C@H](CC(N)=O)NC(=O)[C@H](C)NC(=O)[C@H](CC(C)C)NC(=O)[C@H](CCCNC(=N)N)NC(=O)[C@H](CCC(N)=O)NC(=O)[C@@H](NC(=O)[C@H](C)NC(=O)[C@@H]1CSSC[C@H](NC(=O)[C@@H](N)CCCCN)C(=O)N[C@@H](CC(N)=O)C(=O)N[C@@H]([C@@H](C)O)C(=O)N[C@@H](C)C(=O)N[C@@H]([C@@H](C)O)C(=O)N1)[C@@H](C)O)C(C)C)C(=O)N[C@@H](CC(C)C)C(=O)N1CCC[C@H]1C(=O)N1CCC[C@H]1C(=O)N[C@H](C(=O)N[C@@H](CC(N)=O)C(=O)N[C@H](C(=O)NCC(=O)N[C@@H](CO)C(=O)N[C@@H](CC(N)=O)C(=O)N[C@H](C(=O)N[C@@H](Cc1ccc(O)cc1)C(N)=O)[C@@H](C)O)C(C)C)[C@@H](C)O [Example 10, N-epsilon25-(2-{2-[2-(2-{2-[2-(19-carboxynonadecanoylamino)ethoxy]ethoxy}acetylamino)ethoxy]ethoxy}acetyl)-[Lys25]-pramlintide (1-37)] (H-KCNTATCATQRLANFLVHSSNNFGK([AEEA-AEEA-C20 diacid])ILPPTNVGSNTY-NH2; disulfide 2-7; N-terminus and C-terminus assumed) | –
